Data published in US9642869B2, “Boronic acid derivatives and therapeutic uses thereof” (Rempex Pharmaceuticals, Inc., priority 2013, dated 2017).

Legend:
KPC-2 KP1004 = assay: Aztreonam potentiation (MPC@4); type: cell-based; conditions: minimum BLI concentration inhibiting growth with 4 μg/mL aztreonam
SHV-5 ec308 [1] = type: cell-based; conditions: minimum BLI concentration inhibiting growth with tigemonam at 4 μg/mL
CTX-M-14 KP1005 = type: cell-based
SHV-5 ec308 [2] = assay: Aztreonam potentiation (MPC@4); type: cell-based; conditions: minimum BLI concentration inhibiting growth with 4 μg/mL aztreonam
ECL1002 [3] = assay: Aztreonam potentiation (MPC@4); type: cell-based; conditions: minimum BLI concentration inhibiting growth with 4 μg/mL aztreonam
CTX-M-15 KP1009 = type: cell-based
ECL1002 [4] = type: cell-based; conditions: minimum BLI concentration inhibiting growth with tigemonam at 4 μg/mL
SHV-12 = SHV-12 (Klebsiella pneumoniae, UniProt P0AD64, E235K/G234S/L31Q); assay: Inhibition of nitrocefin cleavage by purified enzyme (Ki); type: biochemical; conditions: nitrocefin reporter substrate, 10 min preincubation; read-out: Ki (SHV-12, NCF)
SHV-12, sequence (P0AD64 22-286 L31Q/G234S/E235K): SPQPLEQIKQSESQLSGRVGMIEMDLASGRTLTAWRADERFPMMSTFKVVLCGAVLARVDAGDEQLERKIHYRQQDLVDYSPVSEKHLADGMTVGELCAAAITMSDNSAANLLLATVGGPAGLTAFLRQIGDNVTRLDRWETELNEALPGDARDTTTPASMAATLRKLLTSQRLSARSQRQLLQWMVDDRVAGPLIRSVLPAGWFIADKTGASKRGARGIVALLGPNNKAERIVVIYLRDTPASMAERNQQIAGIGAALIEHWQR
Procedure: Purified enzymes were mixed with various concentrations of inhibitors in reaction buffer and incubated for 10 min at room temperature. Nitrocefin was added and substrate cleavage profiles were recorded at 490 nm every 10 sec for 10 min.

OXA-48 KP1086 = assay: Biapenem potentiation (MPC@1); type: cell-based; conditions: minimum BLI concentration inhibiting growth with 1 μg/mL biapenem
Procedure: (§1) Biapenem was present in the test medium at 1 μg/mL. […] Table 3 summarizes the BLI potency of biapenem potentiation (MPC@1) for two strains overexpressing class A (KPC) and class D (OXA-48) carbapenemases. Biapenem MIC for each strain is also shown.

KP1004 KPC-2 = assay: Biapenem potentiation (MPC@1); type: cell-based; conditions: minimum BLI concentration inhibiting growth with 1 μg/mL biapenem
Procedure: as §1

Row | Compound | AZT MPC4 KPC-2 KP1004 (KPC-2 KP1004) | TIG MPC4 SHV-5 ec308 (SHV-5 ec308 [1]) | TIG MPC4 CTX-M-14 KP1005 (CTX-M-14 KP1005) | AZT MPC4 SHV-5 ec308 (SHV-5 ec308 [2]) | AZT MPC4 ECL1002 (ECL1002 [3]) | TIG MPC4 CTX-M-15 KP1009 (CTX-M-15 KP1009) | TIG MPC4 ECL1002 (ECL1002 [4]) | Ki (SHV-12) | BPM MPC1 OXA-48 KP1086 (OXA-48 KP1086) | BPM MPC1 KP1004 KPC-2 (KP1004 KPC-2)
1 | CN(C)C(=O)CC(=O)N[C@H]1Cc2cccc(C(=O)O)c2OB1O [Compound 10, (R)-3-(3-(dimethylamino)-3-oxopropanamido)-2-hydroxy-3,4-dihydro-2H-benzo[e][1,2]oxaborinine-8-carboxylic acid] | X (MIC of less than 1 μg/mL) | Y (MIC of 1 μg/mL to 10 μg/mL) | Y (key: X: MIC of less than 1 μg/mL; Y: MIC of 1 μg/mL to 10 μg/mL; Z: MIC of greater than 10 μg/mL) | Y (MIC of 1 μg/mL to 10 μg/mL) | Y (MIC of 1 μg/mL to 10 μg/mL) | X (key: X: MIC of less than 1 μg/mL; Y: MIC of 1 μg/mL to 10 μg/mL; Z: MIC of greater than 10 μg/mL) | X (MIC of less than 1 μg/mL) | < 1 nM | Y (MIC of 1 μg/mL to 10 μg/mL) | X (MIC of less than 1 μg/mL)
2 | CSC(=O)N[C@H]1Cc2cccc(C(=O)O)c2OB1O [Compound 11, (R)-2-hydroxy-3-(methylthiocarbonylamino)-3,4-dihydro-2H-benzo[e][1,2]oxaborinine-8-carboxylic acid] | Y (MIC of 1 μg/mL to 10 μg/mL) | Y (MIC of 1 μg/mL to 10 μg/mL) | Y (key: X: MIC of less than 1 μg/mL; Y: MIC of 1 μg/mL to 10 μg/mL; Z: MIC of greater than 10 μg/mL) | X (MIC of less than 1 μg/mL) | Y (MIC of 1 μg/mL to 10 μg/mL) | Y (key: X: MIC of less than 1 μg/mL; Y: MIC of 1 μg/mL to 10 μg/mL; Z: MIC of greater than 10 μg/mL) | Y (MIC of 1 μg/mL to 10 μg/mL) | < 1 nM | Y (MIC of 1 μg/mL to 10 μg/mL) | X (MIC of less than 1 μg/mL)
3 | O=C(N[C@H]1Cc2cccc(C(=O)O)c2OB1O)c1cncc(F)c1 [Compound 14, (R)-3-(5-fluoronicotinamido)-2-hydroxy-3,4-dihydro-2H-benzo[e][1,2]oxaborinine-8-carboxylic acid] | Y (MIC of 1 μg/mL to 10 μg/mL) | Y (MIC of 1 μg/mL to 10 μg/mL) | Y (key: X: MIC of less than 1 μg/mL; Y: MIC of 1 μg/mL to 10 μg/mL; Z: MIC of greater than 10 μg/mL) | Y (MIC of 1 μg/mL to 10 μg/mL) | Y (MIC of 1 μg/mL to 10 μg/mL) | Y (key: X: MIC of less than 1 μg/mL; Y: MIC of 1 μg/mL to 10 μg/mL; Z: MIC of greater than 10 μg/mL) | Y (MIC of 1 μg/mL to 10 μg/mL) | < 1 nM | Y (MIC of 1 μg/mL to 10 μg/mL) | X (MIC of less than 1 μg/mL)
4 | O=C(N[C@H]1Cc2cccc(C(=O)O)c2OB1O)c1cncs1 [Compound 15, (R)-2-hydroxy-3-(thiazole-5-carboxamido)-3,4-dihydro-2H-benzo[e][1,2]oxaborinine-8-carboxylic acid] | Y (MIC of 1 μg/mL to 10 μg/mL) | Y (MIC of 1 μg/mL to 10 μg/mL) | Y (key: X: MIC of less than 1 μg/mL; Y: MIC of 1 μg/mL to 10 μg/mL; Z: MIC of greater than 10 μg/mL) | X (MIC of less than 1 μg/mL) | Y (MIC of 1 μg/mL to 10 μg/mL) | Y (key: X: MIC of less than 1 μg/mL; Y: MIC of 1 μg/mL to 10 μg/mL; Z: MIC of greater than 10 μg/mL) | Y (MIC of 1 μg/mL to 10 μg/mL) | < 1 nM | Y (MIC of 1 μg/mL to 10 μg/mL) | X (MIC of less than 1 μg/mL)
5 | NC(=O)C(=O)N[C@H]1Cc2cccc(C(=O)O)c2OB1O [Compound 17, (R)-3-(2-amino-2-oxoacetamido)-2-hydroxy-3,4-dihydro-2H-benzo[e][1,2]oxaborinine-8-carboxylic acid] | Y (MIC of 1 μg/mL to 10 μg/mL) | Y (MIC of 1 μg/mL to 10 μg/mL) | Z (key: X: MIC of less than 1 μg/mL; Y: MIC of 1 μg/mL to 10 μg/mL; Z: MIC of greater than 10 μg/mL) | X (MIC of less than 1 μg/mL) | Y (MIC of 1 μg/mL to 10 μg/mL) | Y (key: X: MIC of less than 1 μg/mL; Y: MIC of 1 μg/mL to 10 μg/mL; Z: MIC of greater than 10 μg/mL) | Y (MIC of 1 μg/mL to 10 μg/mL) | 1 to 10 nM | Y (MIC of 1 μg/mL to 10 μg/mL) | X (MIC of less than 1 μg/mL)
